Read-outs that look alike come from different tables or passages of the source. Bounds are passed on as bounds.

Common to all, as to assay: Transcreener KINASE Assay, fluorescent determination of PI3K enzyme activity
Holding throughout (format): biochemical

The target of one assay is PI3K-δ (p110δ/p85α) (Homo sapiens (Human), UniProt O00329). As to conditions: for inhibition at 1 µM: read-out: PI3K-δ IH % (inhibition rate).
For another assay, the target named is PI3K-γ (p110γ) (Homo sapiens (Human), UniProt P48736). As to conditions: for inhibition at 1 µM: read-out: PI3K-γ IH % (inhibition rate).
Another assay addresses PI3K-β (Homo sapiens, UniProt P42338). As to conditions: for inhibition at 1 µM: read-out: PI3K-β IH % (inhibition rate); for inhibition at 1 µM / PI3K-β IH % (inhibition rate): at 1 μM.
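For PI3K-β IH % (inhibition rate) in this document: recombinant PI3K enzyme reaction, 80 min at room temperature, ADP formed detected by far-red competitive fluorescence polarization immunoassay, inhibition relative to ADP in 2% DMSO control wells.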
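For PI3K-γ IH % (inhibition rate) in this document: ADP produced by p110γ kinase reaction, 80 min at room temperature, detected by far-red fluorescence polarization immunoassay, inhibition relative to 2% DMSO control wells.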
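For PI3K-δ IH % (inhibition rate) in this document: ADP formed by the kinase detected via far-red competitive fluorescence polarization immunoassay after 80 min room-temperature reaction, inhibition relative to 2% DMSO wells.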

Sequence of PI3K-β (P42338 whole entry, looked up): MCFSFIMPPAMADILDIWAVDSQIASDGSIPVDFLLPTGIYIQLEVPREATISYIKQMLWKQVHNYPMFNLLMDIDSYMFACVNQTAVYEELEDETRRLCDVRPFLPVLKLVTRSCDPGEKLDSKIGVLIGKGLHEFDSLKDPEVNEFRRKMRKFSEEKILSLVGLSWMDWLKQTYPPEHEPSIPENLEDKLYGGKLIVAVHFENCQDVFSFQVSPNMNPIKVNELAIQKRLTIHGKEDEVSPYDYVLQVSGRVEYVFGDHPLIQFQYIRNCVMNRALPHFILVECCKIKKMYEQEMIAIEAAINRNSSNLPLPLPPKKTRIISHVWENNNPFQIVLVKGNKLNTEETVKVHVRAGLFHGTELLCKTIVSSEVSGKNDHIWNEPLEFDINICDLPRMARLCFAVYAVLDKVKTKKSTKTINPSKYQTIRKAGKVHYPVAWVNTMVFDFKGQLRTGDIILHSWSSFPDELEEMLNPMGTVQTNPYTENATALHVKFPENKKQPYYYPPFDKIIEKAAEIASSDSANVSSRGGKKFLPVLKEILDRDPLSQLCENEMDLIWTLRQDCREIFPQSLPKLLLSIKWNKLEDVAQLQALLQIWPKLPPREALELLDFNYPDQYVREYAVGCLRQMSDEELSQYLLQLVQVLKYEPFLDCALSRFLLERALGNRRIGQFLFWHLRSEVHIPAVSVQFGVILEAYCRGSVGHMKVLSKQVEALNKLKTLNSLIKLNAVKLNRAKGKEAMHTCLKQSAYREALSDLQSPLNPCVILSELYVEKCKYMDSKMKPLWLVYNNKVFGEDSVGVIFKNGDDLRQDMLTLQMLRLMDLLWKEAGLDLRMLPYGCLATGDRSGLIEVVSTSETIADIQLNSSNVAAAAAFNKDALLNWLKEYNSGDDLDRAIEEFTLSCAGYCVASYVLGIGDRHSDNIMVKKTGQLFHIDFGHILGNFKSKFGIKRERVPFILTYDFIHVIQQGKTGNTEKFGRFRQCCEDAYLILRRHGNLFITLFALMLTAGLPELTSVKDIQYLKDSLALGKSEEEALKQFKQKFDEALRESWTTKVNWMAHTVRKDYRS
Sequence of PI3K-δ (p110δ/p85α) (O00329 whole entry, species assumed): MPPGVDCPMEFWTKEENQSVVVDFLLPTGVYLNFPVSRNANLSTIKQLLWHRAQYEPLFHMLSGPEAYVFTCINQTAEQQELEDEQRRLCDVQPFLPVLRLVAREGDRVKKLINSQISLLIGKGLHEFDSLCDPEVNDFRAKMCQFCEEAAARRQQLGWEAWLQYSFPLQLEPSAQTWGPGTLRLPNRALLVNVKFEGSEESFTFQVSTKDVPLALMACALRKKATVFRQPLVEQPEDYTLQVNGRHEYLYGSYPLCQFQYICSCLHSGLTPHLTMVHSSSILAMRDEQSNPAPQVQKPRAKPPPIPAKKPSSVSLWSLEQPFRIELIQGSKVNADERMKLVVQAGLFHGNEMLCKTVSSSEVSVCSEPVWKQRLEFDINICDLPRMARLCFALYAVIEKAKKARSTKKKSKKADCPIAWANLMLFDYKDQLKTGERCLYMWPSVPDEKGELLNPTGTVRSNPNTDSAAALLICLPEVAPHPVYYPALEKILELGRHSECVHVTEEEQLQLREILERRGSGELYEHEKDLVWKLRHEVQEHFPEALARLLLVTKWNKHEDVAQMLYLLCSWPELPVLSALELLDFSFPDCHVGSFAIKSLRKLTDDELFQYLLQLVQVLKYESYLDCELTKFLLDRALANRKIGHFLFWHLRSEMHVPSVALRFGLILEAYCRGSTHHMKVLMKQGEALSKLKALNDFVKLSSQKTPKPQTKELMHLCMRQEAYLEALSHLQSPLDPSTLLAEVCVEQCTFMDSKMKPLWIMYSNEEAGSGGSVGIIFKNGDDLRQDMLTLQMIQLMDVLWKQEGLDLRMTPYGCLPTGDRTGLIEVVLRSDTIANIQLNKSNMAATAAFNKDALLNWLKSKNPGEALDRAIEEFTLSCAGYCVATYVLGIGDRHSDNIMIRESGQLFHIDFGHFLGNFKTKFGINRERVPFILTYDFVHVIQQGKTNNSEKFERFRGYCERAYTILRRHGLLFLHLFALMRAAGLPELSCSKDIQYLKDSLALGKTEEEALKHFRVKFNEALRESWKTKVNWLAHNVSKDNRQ
Sequence of PI3K-δ (p110δ/p85α) (P27986 whole entry partner, species assumed): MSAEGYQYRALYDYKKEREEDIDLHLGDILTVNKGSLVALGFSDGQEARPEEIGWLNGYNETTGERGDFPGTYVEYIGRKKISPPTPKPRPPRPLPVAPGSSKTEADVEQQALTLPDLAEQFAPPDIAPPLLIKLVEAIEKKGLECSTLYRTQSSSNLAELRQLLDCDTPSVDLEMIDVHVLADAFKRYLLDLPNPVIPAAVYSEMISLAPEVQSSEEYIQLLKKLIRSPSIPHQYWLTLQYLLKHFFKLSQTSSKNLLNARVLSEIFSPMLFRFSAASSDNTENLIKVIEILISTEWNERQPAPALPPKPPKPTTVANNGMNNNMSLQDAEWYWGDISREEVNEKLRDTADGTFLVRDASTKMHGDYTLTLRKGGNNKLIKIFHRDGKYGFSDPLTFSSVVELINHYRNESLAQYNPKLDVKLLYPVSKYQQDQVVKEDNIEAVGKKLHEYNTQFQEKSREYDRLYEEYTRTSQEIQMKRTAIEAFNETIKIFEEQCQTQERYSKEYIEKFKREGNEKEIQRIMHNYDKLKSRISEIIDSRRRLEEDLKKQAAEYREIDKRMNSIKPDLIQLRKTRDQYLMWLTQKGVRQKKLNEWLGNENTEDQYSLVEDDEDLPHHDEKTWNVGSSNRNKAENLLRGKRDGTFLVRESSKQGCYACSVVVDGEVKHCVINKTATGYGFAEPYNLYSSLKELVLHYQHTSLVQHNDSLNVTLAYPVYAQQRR
Sequence of PI3K-γ (p110γ) (P48736 whole entry, species assumed): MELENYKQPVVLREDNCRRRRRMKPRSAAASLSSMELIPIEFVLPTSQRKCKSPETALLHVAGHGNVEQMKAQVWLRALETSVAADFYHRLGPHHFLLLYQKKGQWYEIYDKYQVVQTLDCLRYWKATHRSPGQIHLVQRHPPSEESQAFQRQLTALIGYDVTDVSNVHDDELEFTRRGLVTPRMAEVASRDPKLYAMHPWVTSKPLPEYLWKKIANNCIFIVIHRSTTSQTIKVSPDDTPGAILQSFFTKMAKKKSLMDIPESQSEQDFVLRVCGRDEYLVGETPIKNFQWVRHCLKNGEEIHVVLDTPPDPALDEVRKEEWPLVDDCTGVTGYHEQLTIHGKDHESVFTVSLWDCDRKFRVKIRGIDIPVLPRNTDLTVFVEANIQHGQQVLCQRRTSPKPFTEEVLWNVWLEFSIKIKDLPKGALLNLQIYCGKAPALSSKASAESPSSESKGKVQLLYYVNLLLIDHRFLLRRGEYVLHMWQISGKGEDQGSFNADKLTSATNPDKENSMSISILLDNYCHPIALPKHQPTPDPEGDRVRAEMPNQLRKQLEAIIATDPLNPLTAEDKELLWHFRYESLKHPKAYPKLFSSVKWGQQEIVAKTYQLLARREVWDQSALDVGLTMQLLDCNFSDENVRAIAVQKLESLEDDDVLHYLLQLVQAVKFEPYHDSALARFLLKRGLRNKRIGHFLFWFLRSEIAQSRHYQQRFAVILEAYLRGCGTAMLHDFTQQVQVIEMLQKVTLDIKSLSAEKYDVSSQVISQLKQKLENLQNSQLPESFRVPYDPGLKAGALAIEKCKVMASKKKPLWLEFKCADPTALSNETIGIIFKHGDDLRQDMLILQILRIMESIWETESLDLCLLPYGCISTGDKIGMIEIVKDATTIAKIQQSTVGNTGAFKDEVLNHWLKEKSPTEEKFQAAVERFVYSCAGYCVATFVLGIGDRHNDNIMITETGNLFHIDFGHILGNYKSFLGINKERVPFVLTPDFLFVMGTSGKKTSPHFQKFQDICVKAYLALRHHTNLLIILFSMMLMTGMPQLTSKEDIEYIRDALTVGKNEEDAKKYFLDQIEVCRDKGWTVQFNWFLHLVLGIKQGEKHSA
Procedure for PI3K-β: (§1) It is a universal, homogenous, high throughput screening (HTS) technology using a far-red, competitive fluorescence polarization immunoassay based on the detection of ADP to monitor the activity of enzymes that catalyze group transfer reactions. […] The reaction mixture was added into desired wells of a 96-well plate. The plate was sealed and incubated for 80 min at room temperature. • 2) Next, 25 uL ADP detection mix was added into each well. The plate was sealed again and incubated for 60 min at room temperature. Then fluorescence polarization was measured by Tecan Infinite F500 Reader.
(§2) Data was analyzed and IC50 values were generated using the add-in software for Microsoft Excel, Xlfit™ (version 5.3).
(§3) Inhibition rates were calculated as follow: IH %=(ADP amount under 2% DMSO well−ADP amount under test compound well)/ADP amount under 2% DMSO well×100%.
Procedure for PI3K-γ (p110γ): as §1, §2, §3
Procedure for PI3K-δ (p110δ/p85α): as §1, §2, §3

On to `CC[C@@H](Nc1ncnc2[nH]cnc12)c1cc2ncc(Cl)n2nc1-c1cccc(F)c1` [Compound 44], for which the IC50 against PI3K-δ (p110δ/p85α) was 283 nM. The inhibition at 1 µM on PI3K-γ (p110γ) (at 1 μM) was 36%; on PI3K-β, 18.8%.

Take `C[C@@H](Nc1ncnc(N)c1C#N)c1cc2ncc(Cl)n2nc1-c1ccccc1` [Compound 3, (R)-4-amino-6-((1-(3-chloro-6-phenylimidazo[1,2-b]pyridazin-7-yl)ethyl)amino)pyrimidine-5-carbonitrile]: the inhibition at 1 µM on PI3K-γ (p110γ) (at 1 μM) turned out to be 6.9%.

In the case of `C[C@H](Nc1ncnc(N)c1C#N)c1cc2ncc(Cl)n2nc1-c1cnn(C)c1` [Compound 72], the IC50 against PI3K-δ (p110δ/p85α) is 4 nM; at PI3K-γ (p110γ), 513 nM; against PI3K-β, 89 nM.

Turning to `Cc1nnc(-c2c(N)ncnc2N[C@@H](C)c2cc3ncc(Cl)n3nc2-c2ccccc2)o1` [Compound 81, (S)—N^4-(1-(3-chloro-6-phenylimidazo[1,2-b]pyridazin-7-yl)ethyl)-5-(5-methyl-1,3,4-oxadiazol-2-yl)pyrimidine-4,6-diamine], the IC50 at PI3K-δ (p110δ/p85α) came out at 2 nM; against PI3K-γ (p110γ), 98 nM.

With `CNc1ncnc(N[C@@H](C)c2cc3ncc(Cl)n3nc2-c2ccccc2)c1C#N` [Compound 33, (S)-4-((1-(3-chloro-6-phenylimidazo[1,2-b]pyridazin-7-yl)ethyl)amino)-6-(methylamino)pyrimidine-5-carbonitrile], at PI3K-δ (p110δ/p85α), the IC50 stood at 288 nM. Besides, the inhibition at 1 µM on PI3K-γ (p110γ) (at 1 μM) is -6.9%; at PI3K-β it was 2.2%.

As to `C[C@H](Nc1ncnc(N)c1C#N)c1cc2ncc(Cl)n2nc1-c1cccc(C(C)(C)O)c1` (single isomer, unassigned) [Compound 79, (chiral)-4-amino-6-((1-(3-chloro-6-(3-(2-hydroxypropan-2-yl)phenyl)imidazo[1,2-b]pyridazin-7-yl)ethyl)amino)pyrimidine-5-carbonitrile], the “PI3K-γ IH % (inhibition rate)” value on PI3K-γ (p110γ) (at 1 μM) was found to be 56.2%. In addition, the “PI3K-β IH % (inhibition rate)” value on PI3K-β worked out at 43.8%.

For `COc1cc(-c2c(N)ncnc2N[C@@H](C)c2cc3ncc(Cl)n3nc2-c2ccccc2)ccn1` [Compound 50], the inhibition at 1 µM was 68.9% at PI3K-δ (p110δ/p85α), 5.5% at PI3K-γ (p110γ) (at 1 μM) and -14.1% at PI3K-β.

For the compound `C[C@@H](c1cc2ncc(Cl)n2nc1-c1ccccc1)N(C)c1ncnc(N)c1C#N` [Compound 42, (S)-4-amino-6-((1-(3-chloro-6-phenylimidazo[1,2-b]pyridazin-7-yl)ethyl)(methyl)amino)pyrimidine-5-carbonitrile], on PI3K-δ (p110δ/p85α), the IC50 turned out to be 339 nM. Further, the values for the inhibition at 1 µM at PI3K-γ (p110γ) (at 1 μM) and at PI3K-β were 18.2% and 7.4%, respectively.

Regarding `CC(Nc1ncnc2[nH]cnc12)c1cc2ncc(Cl)n2nc1-c1ccccc1` (single isomer, unassigned) [Compound 11], the results for the IC50 against PI3K-δ (p110δ/p85α) and at PI3K-γ (p110γ) were 3 nM and 94 nM, respectively. In addition, the inhibition at 1 µM on PI3K-β came out at 55.7%.

Take `C[C@H](Nc1nc(N)ncc1C#N)c1cc2ncc(Cl)n2nc1-c1ccccc1` [Compound 34]: the figures for the inhibition at 1 µM on PI3K-δ (p110δ/p85α), at PI3K-γ (p110γ) (at 1 μM) and on PI3K-β were 8.3%, -19.3% and 3.7%, respectively.

For the compound `CC[C@H](Nc1ncnc2[nH]cnc12)c1cc2ncc(Cl)n2nc1-c1cccc(F)c1` [Compound 47], the IC50 against PI3K-δ (p110δ/p85α) turned out to be 18 nM. The inhibition at 1 µM came to 55.2% on PI3K-γ (p110γ) (at 1 μM) and 32.2% at PI3K-β.

At PI3K-δ (p110δ/p85α), `CC(Nc1ncnc(N)c1C#N)c1cc2nccn2nc1-c1ccccc1` (stereo not drawn) [Compound 1, 4-amino-6-((1-(6-phenylimidazo[1,2-b]pyridazin-7-yl)ethyl)amino)pyrimidine-5-carbonitrile] had an IC50 of 28 nM. The inhibition at 1 µM on PI3K-γ (p110γ) turned out to be 16.1%; on PI3K-β, 28.1%.

For `C[C@H](Nc1ncnc(N)c1C(=O)O)c1cc2ncc(Cl)n2nc1-c1ccccc1` [Compound 52, (S)-4-amino-6-((1-(3-chloro-6-phenylimidazo[1,2-b]pyridazin-7-yl)ethyl)amino)pyrimidine-5-carboxylic acid], the IC50 on PI3K-δ (p110δ/p85α) amounted to 80 nM. Besides, the inhibition at 1 µM was -26.1% on PI3K-γ (p110γ) and -6.3% on PI3K-β.

Take `C[C@H](Nc1ncnc(N)c1C#N)c1cc2ncc(Cl)n2nc1-c1ccc(O)cc1` [Compound 49]: the IC50 at PI3K-δ (p110δ/p85α) turned out to be 1 nM; at PI3K-γ (p110γ) it was 146 nM; against PI3K-β it was 1 nM.

Turning to `C[C@H](Nc1ncnc(N)c1C#N)c1cc2ncc(Cl)n2nc1-c1ccc(Cl)c(F)c1` [Compound 64], the IC50 was 48 nM against PI3K-δ (p110δ/p85α) and more than 333 nM at PI3K-γ (p110γ). Besides, the inhibition at 1 µM on PI3K-β stood at 44.1%.

On to `C[C@H](Nc1nc[n+]([O-])c(N)c1C#N)c1cc2ncc(Cl)n2nc1-c1ccccc1` [Compound 51, (S)-6-amino-4-((1-(3-chloro-6-phenylimidazo[1,2-b]pyridazin-7-yl)ethyl)amino)-5-cyanopyrimidine 1-oxide], for which the inhibition at 1 µM at PI3K-γ (p110γ) is 36.7%; at PI3K-β, -15.5%.

`C[C@H](Nc1ncnc(N)c1-c1ccc(O)c(F)c1)c1cc2ncc(Cl)n2nc1-c1ccccc1` [Compound 38] yielded an IC50 on PI3K-δ (p110δ/p85α) of 66 nM. The values for the inhibition at 1 µM at PI3K-γ (p110γ) (at 1 μM) and at PI3K-β were 54.3% and -2.2%, respectively.

As for `C[C@H](Nc1ncnc(N)c1C#N)c1cc2ncc(Cl)n2nc1-c1ccccc1F` [Compound 12], the IC50 came out at 2 nM against PI3K-δ (p110δ/p85α), 550 nM at PI3K-γ (p110γ) and 80 nM against PI3K-β.

As to `C[C@H](Nc1ncnc(N)c1C#N)c1cc2ncc(Cl)n2nc1-c1ccc2c(c1)OCCO2` [Compound 70], the inhibition at 1 µM on PI3K-β worked out at 37.4%.

Turning to `COc1ccc(-c2c(N)ncnc2N[C@@H](C)c2cc3ncc(Cl)n3nc2-c2ccccc2)cn1` [Compound 39], on PI3K-δ (p110δ/p85α), 73 nM corresponded to half-maximal inhibition (IC50). Moreover, the inhibition at 1 µM at PI3K-γ (p110γ) (at 1 μM) was 28.1%; at PI3K-β, -4.4%.

For the compound `C[C@H](Nc1ncnc(N)c1C#N)c1cc2ncc(Cl)n2nc1-c1ccsc1` [Compound 60], the IC50 against PI3K-δ (p110δ/p85α) was found to be 1 nM; at PI3K-γ (p110γ), 48 nM; on PI3K-β, 34 nM.

At PI3K-δ (p110δ/p85α), `C[C@H](Nc1ncnc(N)c1C#N)c1cc2ncc(Cl)n2nc1-c1ccncc1` [Compound 73] showed an IC50 of 82 nM. The inhibition at 1 µM at PI3K-γ (p110γ) (at 1 μM) stood at 62.8%; at PI3K-β, 60.8%.

Take `CC[C@@H](Nc1ncnc(N)c1C#N)c1cc2ncc(Cl)n2nc1-c1ccccc1` [Compound 5, (R)-4-amino-6-((1-(3-chloro-6-phenylimidazo[1,2-b]pyridazin-7-yl)propyl)amino)pyrimidine-5-carbonitrile]: the inhibition at 1 µM on PI3K-δ (p110δ/p85α) was 47.3%; at PI3K-γ (p110γ) (at 1 μM) it was 4.1%; at PI3K-β, -10.7%.

For the compound `C[C@H](Nc1nc(O)nc(N)c1C#N)c1cc2ncc(Cl)n2nc1-c1ccccc1` [Compound 55, (S)-4-amino-6-((1-(3-chloro-6-phenylimidazo[1,2-b]pyridazin-7-yl)ethyl)amino)-2-hydroxypyrimidine-5-carbonitrile], the results for the inhibition at 1 µM on PI3K-δ (p110δ/p85α), at PI3K-γ (p110γ) (at 1 μM) and on PI3K-β were 60.3%, -4.7% and 8.5%, respectively.

Take `C[C@H](Nc1ncnc(N)c1C(=O)N(C)C)c1cc2ncc(Cl)n2nc1-c1ccccc1` [Compound 56]: the values for the inhibition at 1 µM at PI3K-δ (p110δ/p85α), on PI3K-γ (p110γ) (at 1 μM) and on PI3K-β were 21%, 1% and 9%, respectively.

Take `C[C@H](Nc1ncnc(N)c1-c1cnn(C)c1)c1cc2ncc(Cl)n2nc1-c1ccccc1` [Compound 57]: the IC50 at PI3K-δ (p110δ/p85α) stood at 62 nM. Moreover, the inhibition at 1 µM at PI3K-γ (p110γ) (at 1 μM) amounted to 30.3%; at PI3K-β it was 6.3%.

Regarding `C[C@H](Nc1ncnc(N)c1C#N)c1cc2ncc(Cl)n2nc1-c1ccc(F)c(F)c1` [Compound 63], the IC50 is 6 nM on PI3K-δ (p110δ/p85α) and 105 nM against PI3K-γ (p110γ). Moreover, the inhibition at 1 µM at PI3K-β turned out to be 48.1%.

At PI3K-δ (p110δ/p85α), `C[C@H](Nc1ncnc(N)c1-c1cccc(F)c1)c1cc2ncc(Cl)n2nc1-c1ccccc1` [Compound 37, (S)—N^4-(1-(3-chloro-6-phenylimidazo[1,2-b]pyridazin-7-yl)ethyl)-5-(3-fluorophenyl)pyrimidine-4,6-diamine] showed an IC50 of 288 nM. Besides, the inhibition at 1 µM at PI3K-γ (p110γ) (at 1 μM) was 27.5%; at PI3K-β it was -0.4%.

Regarding `CCC(Nc1ncnc2[nH]cnc12)c1cc2ncc(Cl)n2nc1-c1ccccc1F` (single isomer, unassigned) [Compound 26], the inhibition at 1 µM on PI3K-γ (p110γ) (at 1 μM) amounted to 8%. The “PI3K-β IH % (inhibition rate)” value on PI3K-β is recorded as −7.5%.

In the case of `C[C@@H](Nc1ncnc(N)c1C#N)c1cc2ncc(Cl)n2nc1-c1ccc2scnc2c1` [Compound 75], the inhibition at 1 µM at PI3K-δ (p110δ/p85α) is 1%; on PI3K-γ (p110γ) (at 1 μM), 31.7%; at PI3K-β it was -7.1%.

In the case of `CCC(Nc1ncnc(N)c1C#N)c1cc2ncc(Cl)n2nc1-c1ccccn1` (stereo not drawn) [Compound 28], the values for the inhibition at 1 µM at PI3K-δ (p110δ/p85α), on PI3K-γ (p110γ) (at 1 μM) and at PI3K-β were 39.8%, 18.8% and 11.1%, respectively.

Take `CCC(Nc1ncnc2[nH]cnc12)c1cc2ncc(Cl)n2nc1-c1ccccc1` (stereo not drawn) [Compound 14]: the inhibition at 1 µM was determined as 51% on PI3K-δ (p110δ/p85α) and 22.5% on PI3K-γ (p110γ) (at 1 μM). The “PI3K-β IH % (inhibition rate)” value at PI3K-β came out at 3.2%.

Turning to `C[C@H](Nc1ncnc(N)c1C#N)c1cc2ncc(Cl)n2nc1-c1ccccc1O` [Compound 69, (S)-4-amino-6-((1-(3-chloro-6-(2-hydroxyphenyl)imidazo[1,2-b]pyridazin-7-yl)ethyl)amino)pyrimidine-5-carbonitrile], half-maximal inhibition against PI3K-δ (p110δ/p85α) (IC50) was put at 1 nM.

As for `C[C@@H](Nc1ncnc(N)c1C#N)c1cc2ncc(Cl)n2nc1-c1ccccn1` [Compound 7, (R)-4-amino-6-((1-(3-chloro-6-(pyridin-2-yl)imidazo[1,2-b]pyridazin-7-yl)ethyl)amino)pyrimidine-5-carbonitrile], the inhibition at 1 µM at PI3K-δ (p110δ/p85α) is 12.5%; on PI3K-γ (p110γ) (at 1 μM) it was -2.3%; on PI3K-β, -2.7%.

With `C[C@H](Nc1ncnc(N)c1C#N)c1cc2ncc(F)n2nc1-c1ccccc1` [Compound 78], the inhibition at 1 µM on PI3K-β stood at 50.1%.

(Values after patent publication US10208066B2, “Imidazopyridazine compounds and their use” (HUTCHISON MEDIPHARMA LIMITED, priority 2014, dated 2019).)
